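Interpolation was linear, between the two tested concentrations surrounding the appropriate level; five concentrations were tested over 48 hours in 96-well plates. The concentration for 50% growth inhibition is given as GI50.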 The source made the active and inactive calls. Rule as the data show it: active = GI50 up to about 1.1 µM and inactive = higher.
Columns and labels:
Experiment in all cases: NCI anticancer screen, dose series, 48 h
786-0 = system: 786-0
A498 = system: A498
A549 = system: A549
ACHN = system: ACHN
BT-549 = system: BT-549
CCRF-CEM = system: CCRF-CEM
COLO 205 = system: COLO 205
DU-145 = system: DU-145
EKVX = system: EKVX
HCC 2998 = system: HCC 2998
HCT-116 = system: HCT-116
HCT-15 = system: HCT-15
HL-60 = system: HL-60
HOP-62 = system: HOP-62
HOP-92 = system: HOP-92
HT-29 = system: HT-29
IGROV-1 = system: IGROV-1
K562 = system: K562
M14 = system: M14
MCF7 = system: MCF7
MDA-MB-231 = system: MDA-MB-231
MDA-MB-435 = system: MDA-MB-435
MOLT-4 = system: MOLT-4
Malme-3M = system: Malme-3M
NCI-H226 = system: NCI-H226
NCI-H23 = system: NCI-H23
NCI-H460 = system: NCI-H460
NCI/ADR-RES = system: NCI/ADR-RES
OVCAR-3 = system: OVCAR-3
OVCAR-4 = system: OVCAR-4
OVCAR-5 = system: OVCAR-5
OVCAR-8 = system: OVCAR-8
PC-3 = system: PC-3
RPMI-8226 = system: RPMI-8226
SF-268 = system: SF-268
SF-295 = system: SF-295
SK-MEL-28 = system: SK-MEL-28
SK-MEL-5 = system: SK-MEL-5
SK-OV-3 = system: SK-OV-3
SN12C = system: SN12C
SNB-19 = system: SNB-19
SNB-75 = system: SNB-75
SR = system: SR
SW-620 = system: SW-620
T47D = system: T47D
TK-10 = system: TK-10
U-251 = system: U-251
UACC-257 = system: UACC-257
UACC-62 = system: UACC-62
UO-31 = system: UO-31
CAKI-1 = system: CAKI-1
Hs-578T = system: Hs-578T
KM12 = system: KM12
LOX IMVI = system: LOX IMVI
NCI-H522 = system: NCI-H522
RXF 393 = system: RXF 393
SF-539 = system: SF-539
SK-MEL-2 = system: SK-MEL-2

COc1ccc(C2Oc3c(cccc3-c3c(-c4ccc(O)cc4)oc4cc(O)cc(O)c4c3=O)C(=O)C2O)cc1O (stereo unspecified)
GI50 (786-0): > 100 µM (inactive)
GI50 (A498): > 100 µM (inactive)
GI50 (A549): > 100 µM (inactive)
GI50 (ACHN): > 100 µM (inactive)
GI50 (BT-549): > 100 µM (inactive)
GI50 (CCRF-CEM): > 100 µM (inactive)
GI50 (COLO 205): > 100 µM (inactive)
GI50 (DU-145): > 100 µM (inactive)
GI50 (EKVX): > 100 µM (inactive)
GI50 (HCC 2998): > 100 µM (inactive)
GI50 (HCT-116): > 100 µM (inactive)
GI50 (HCT-15): > 100 µM
GI50 (HL-60): > 100 µM (inactive)
GI50 (HOP-62): > 100 µM (inactive)
GI50 (HOP-92): > 100 µM (inactive)
GI50 (HT-29): > 100 µM (inactive)
GI50 (IGROV-1): > 100 µM (inactive)
GI50 (K562): > 100 µM (inactive)
GI50 (M14): > 100 µM (inactive)
GI50 (MCF7): > 100 µM (inactive)
GI50 (MDA-MB-231): > 100 µM (inactive)
GI50 (MDA-MB-435): > 100 µM (inactive)
GI50 (MOLT-4): > 100 µM (inactive)
GI50 (Malme-3M): > 100 µM (inactive)
GI50 (NCI-H226): > 100 µM (inactive)
GI50 (NCI-H23): > 100 µM (inactive)
GI50 (NCI-H460): > 100 µM (inactive)
GI50 (NCI/ADR-RES): > 100 µM (inactive)
GI50 (OVCAR-3): > 100 µM (inactive)
GI50 (OVCAR-4): > 100 µM (inactive)
GI50 (OVCAR-5): > 100 µM (inactive)
GI50 (OVCAR-8): > 100 µM (inactive)
GI50 (PC-3): > 100 µM (inactive)
GI50 (RPMI-8226): 83.2 µM (inactive)
GI50 (SF-268): > 100 µM (inactive)
GI50 (SF-295): > 100 µM (inactive)
GI50 (SK-MEL-28): > 100 µM (inactive)
GI50 (SK-MEL-5): > 100 µM (inactive)
GI50 (SK-OV-3): > 100 µM (inactive)
GI50 (SN12C): > 100 µM (inactive)
GI50 (SNB-19): > 100 µM (inactive)
GI50 (SNB-75): 60.4 µM (inactive)
GI50 (SR): > 100 µM (inactive)
GI50 (SW-620): > 100 µM (inactive)
GI50 (T47D): > 100 µM (inactive)
GI50 (TK-10): > 100 µM (inactive)
GI50 (U-251): > 100 µM (inactive)
GI50 (UACC-257): > 100 µM (inactive)
GI50 (UACC-62): > 100 µM (inactive)
GI50 (UO-31): > 100 µM (inactive)

CC12CCc3ccccc3C1=Nc1ccccc12 (stereo unspecified)
GI50 (786-0): 49.2 µM (inactive)
GI50 (A549): 73.5 µM (inactive)
GI50 (ACHN): 64.7 µM (inactive)
GI50 (BT-549): 17.8 µM (inactive)
GI50 (CAKI-1): 17.7 µM (inactive)
GI50 (CCRF-CEM): 25.1 µM (inactive)
GI50 (COLO 205): 42.8 µM (inactive)
GI50 (DU-145): > 100 µM (inactive)
GI50 (EKVX): 25.1 µM (inactive)
GI50 (HCT-116): 32.7 µM (inactive)
GI50 (HCT-15): 38.1 µM
GI50 (HL-60): 28.8 µM (inactive)
GI50 (HOP-62): 86.1 µM (inactive)
GI50 (HOP-92): 12.9 µM (inactive)
GI50 (HT-29): 29.9 µM (inactive)
GI50 (Hs-578T): 2.14 µM (inactive)
GI50 (IGROV-1): 71.1 µM (inactive)
GI50 (K562): 31 µM (inactive)
GI50 (KM12): 24.1 µM (inactive)
GI50 (LOX IMVI): 40.8 µM (inactive)
GI50 (M14): 32.3 µM (inactive)
GI50 (MCF7): 48.6 µM (inactive)
GI50 (MDA-MB-231): 24.2 µM (inactive)
GI50 (MDA-MB-435): 25.3 µM (inactive)
GI50 (MOLT-4): 30.4 µM (inactive)
GI50 (Malme-3M): 28.1 µM (inactive)
GI50 (NCI-H226): 21.8 µM (inactive)
GI50 (NCI-H23): 31.1 µM (inactive)
GI50 (NCI-H460): 37.3 µM (inactive)
GI50 (NCI-H522): 23.7 µM (inactive)
GI50 (NCI/ADR-RES): 22.4 µM (inactive)
GI50 (OVCAR-3): 15.3 µM (inactive)
GI50 (OVCAR-4): 41.3 µM (inactive)
GI50 (OVCAR-5): > 100 µM (inactive)
GI50 (OVCAR-8): 42.5 µM (inactive)
GI50 (PC-3): 14.3 µM (inactive)
GI50 (RXF 393): 74.3 µM (inactive)
GI50 (SF-268): 98.2 µM (inactive)
GI50 (SF-295): 44.4 µM (inactive)
GI50 (SF-539): 14.2 µM (inactive)
GI50 (SK-MEL-28): 90.2 µM (inactive)
GI50 (SK-MEL-2): 47.9 µM (inactive)
GI50 (SK-MEL-5): 12.6 µM (inactive)
GI50 (SK-OV-3): > 100 µM (inactive)
GI50 (SN12C): 0.164 µM (active)
GI50 (SNB-19): > 100 µM (inactive)
GI50 (SNB-75): > 100 µM (inactive)
GI50 (SR): 45.3 µM (inactive)
GI50 (SW-620): 45.9 µM (inactive)
GI50 (T47D): 21.1 µM (inactive)
GI50 (TK-10): 53.8 µM (inactive)
GI50 (U-251): 44.6 µM (inactive)
GI50 (UACC-257): 49.8 µM (inactive)
GI50 (UACC-62): 29.4 µM (inactive)
GI50 (UO-31): 24.3 µM (inactive)

CC/C=C/C(=O)CC(O)(C(F)(F)F)C(F)(F)F
GI50 (786-0): > 100 µM (inactive)
GI50 (A498): 22.5 µM (inactive)
GI50 (A549): > 100 µM (inactive)
GI50 (ACHN): > 100 µM (inactive)
GI50 (CCRF-CEM): 73.5 µM (inactive)
GI50 (COLO 205): > 100 µM (inactive)
GI50 (DU-145): > 100 µM (inactive)
GI50 (EKVX): > 100 µM (inactive)
GI50 (HCC 2998): > 100 µM (inactive)
GI50 (HCT-116): > 100 µM (inactive)
GI50 (HCT-15): > 100 µM
GI50 (HL-60): 92.7 µM (inactive)
GI50 (HOP-62): > 100 µM (inactive)
GI50 (HOP-92): 32.4 µM (inactive)
GI50 (HT-29): > 100 µM (inactive)
GI50 (Hs-578T): 19 µM (inactive)
GI50 (IGROV-1): > 100 µM (inactive)
GI50 (KM12): > 100 µM (inactive)
GI50 (LOX IMVI): > 100 µM (inactive)
GI50 (M14): > 100 µM (inactive)
GI50 (MCF7): > 100 µM (inactive)
GI50 (MDA-MB-231): > 100 µM (inactive)
GI50 (MDA-MB-435): > 100 µM (inactive)
GI50 (MOLT-4): > 100 µM (inactive)
GI50 (Malme-3M): > 100 µM (inactive)
GI50 (NCI-H226): > 100 µM (inactive)
GI50 (NCI-H23): > 100 µM (inactive)
GI50 (NCI-H460): > 100 µM (inactive)
GI50 (NCI/ADR-RES): > 100 µM (inactive)
GI50 (OVCAR-4): > 100 µM (inactive)
GI50 (OVCAR-5): > 100 µM (inactive)
GI50 (OVCAR-8): > 100 µM (inactive)
GI50 (RPMI-8226): 54.8 µM (inactive)
GI50 (RXF 393): > 100 µM (inactive)
GI50 (SF-268): > 100 µM (inactive)
GI50 (SF-295): > 100 µM (inactive)
GI50 (SF-539): > 100 µM (inactive)
GI50 (SK-MEL-28): > 100 µM (inactive)
GI50 (SK-MEL-5): > 100 µM (inactive)
GI50 (SK-OV-3): > 100 µM (inactive)
GI50 (SN12C): > 100 µM (inactive)
GI50 (SNB-19): > 100 µM (inactive)
GI50 (SNB-75): > 100 µM (inactive)
GI50 (SR): > 100 µM (inactive)
GI50 (SW-620): > 100 µM (inactive)
GI50 (T47D): 82.2 µM (inactive)
GI50 (TK-10): > 100 µM (inactive)
GI50 (U-251): > 100 µM (inactive)
GI50 (UACC-257): > 100 µM (inactive)
GI50 (UACC-62): > 100 µM (inactive)
GI50 (UO-31): 54 µM (inactive)
